Assays:
Format in all cases: in vivo
[1] = test system: Two-Spotted Spider Mite [Tetranychus urticae]; assay: Phosphate-Resistant Strain of Two-Spotted Spider Mite test
Protocol: Phosphate-Resistant Strain of Two-Spotted Spider Mite [Tetranychus urticae (Koch)].
Sieva lima bean plants, with primary leaves 7.6 to 10 cm long, are infested with about 100 adult mites per leaf 4 hours before use in this test, in order to allow egg-laying before treatment. The infested plants are dipped for 3 seconds with agitation into a 300 ppm solution, and the plants set in the hood to dry. After 2 days at 26.7° C., the adult mite mortality is estimated on one leaf under a 10X stereoscopic microscope. The other leaf is left on the plant an additional 5 days and then examined at 10X power to estimate the kill of eggs and of newly-hatched nymphs, giving a measure of ovicidal and residual action, respectively.
(§1) The rating system employed in these tests is as follows:
(§2) Compounds rated active (8 or 9) are further tested at reduced concentrations in 50% acetone: 50% water.

[2] = test system: Southern Armyworm [Spodoptera eridania]; assay: Southern Armyworm test; settings: 2 days
Protocol: (§3) Southern Armyworm [Spodoptera eridania (Cramer)].
(§4) A sieva lima bean plant with just the primary leaves expanded to 7.6 to 10 cm is dipped for 3 seconds with agitation in a 1000 ppm solution and set in a hood to dry. Following this, one leaf is placed in a 10 cm petri dish which has a moist filter paper in the bottom and 10 third-instar armyworm larvae about 1 cm long. The dish is covered and held at 26.7° C. After 2 days mortality counts and estimates of the amount of feeding are made. Compounds showing partial kill and/or inhibition of feeding are held for an extra day for further observations.
as §1, §2

[3] = test system: Mexican Bean Beetle (Epilachna varivestis); assay: Mexican Bean Beetle test
Excerpt: Mexican Bean Beetle (Epilachna varivestis Mulsant)
Sieva lima bean plants (2 per pot) with primary leaves 7.6 to 10 cm long, are dipped in a 300 ppm solution and set in a hood to dry. One leaf is removed from the plant and placed in a 10 cm petri dish containing a moist filter paper on the bottom and 10 last-instar larvae (13 days from hatching).
The day after treatment, another leaf is removed from the plant and fed to the larvae after removing the remains of the original leaf. Two days after treatment, the third leaf is fed to the larvae, this usually being the last needed. The fourth leaf is used on the third day after treatment if the larvae have not finished feeding. The test is now set aside and held until adults have emerged, usually about 9 days after treatment began. After emergence is complete, each dish is examined for dead larvae, pupae or adults; deformed pupae or adults; larval-pupal intermediates or pupal-adult intermediates; or any other interference with normal molting, transformation and emergence of pupae or adults.
as §1, §2

[4] = test system: Southern Armyworm [Spodoptera eridania]; assay: Southern Armyworm residual activity, 7 days; settings: 7 days from original treatment
Protocol: as §3, §4
All compounds showing activity as defined above are retested, using the second leaf on the bean plant, after an interval of 7 days from original treatment, as an assay of residual activity.
The rating system employed in these tests is as follows: […]

CC1(C)C(C(=O)OC(C#N)c2cccc(Oc3ccccc3)c2)C12C=C(Cl)c1ccccc12 (stereo not shown) [drawing 11]
Activity rating, Phosphate Resistant Mites ([1]; 10 ppm): 0 (0-4% killed or affected)
Activity rating, Phosphate Resistant Mites ([1]; 100 ppm): 5 (51-60% mortality)
Activity rating, Phosphate Resistant Mites ([1]; 300 ppm): 8 (86-95% mortality)
Insecticidal activity rating, Southern Armyworms ([2]; 10 ppm): 7 (71-85% mortality)
Insecticidal activity rating, Southern Armyworms ([2]; 100 ppm): 9 (100% mortality)
Insecticidal activity rating, Southern Armyworms ([2]; 1000 ppm): 9 (100% mortality)
Insecticidal activity rating, Mexican Bean Beetles ([3]; 10 ppm): 9 (100% mortality)
Insecticidal activity rating, Mexican Bean Beetles ([3]; 100 ppm): 9 (100% mortality)
Insecticidal activity rating, Mexican Bean Beetles ([3]; 300 ppm): 9 (100% mortality)
Insecticidal activity rating, Southern Armyworms, 7-days [4]: 0 (0-4% killed or affected)
